Measurements reported in patent publication EP0019739A1, “2-Aminoalkyl-5-pyridinoles, process for their preparation and pharmaceutical preparations containing them” (CIBA-GEIGY AG, priority 1979, dated 1980).

Experiment: Pharmacological activity, test not specified
Details: compared with the racemic dihydrochloride (starting material of Example 2) and the levorotatory salt

CC(C)NC(C)Cc1ccc(O)cn1.Cl.Cl (stereo not shown) [rechtsdrehende Antipode, 2-(2-Isopropylaminopropyl)-5-pyridinol-dihydrochlorid]
pharmakologisch aktiv: weniger aktiv
